Assay results taken from ChEMBL document CHEMBL1129995, “N-[2-[(substituted chroman-8-yl)oxy]ethyl]-4-(4-methoxyphenyl)butylamines: synthesis and wide range of antagonism at the human 5-HT1A receptor” (J Med Chem, 1997).
“And” between values parts separate entries of the source, which are not always exact repeats. Equal values may be shown once.

Assays:
[1] = molecular target: D(2) dopamine receptor (Rattus norvegicus, UniProt P61169); experiment: In vitro radioligand binding assay on Dopamine receptor D2 of rat striatum using [3H]- spiperone; format: tissue-based
[2] = molecular target: T1, 5-hydroxytryptamine receptor 1A (Rattus norvegicus, UniProt P19327); experiment: Displacement of [3H]8-OH-DPAT from rat hippocampal 5-hydroxytryptamine 1A receptor; format: tissue-based, Hippocampus
T1 sequence (P19327 whole entry): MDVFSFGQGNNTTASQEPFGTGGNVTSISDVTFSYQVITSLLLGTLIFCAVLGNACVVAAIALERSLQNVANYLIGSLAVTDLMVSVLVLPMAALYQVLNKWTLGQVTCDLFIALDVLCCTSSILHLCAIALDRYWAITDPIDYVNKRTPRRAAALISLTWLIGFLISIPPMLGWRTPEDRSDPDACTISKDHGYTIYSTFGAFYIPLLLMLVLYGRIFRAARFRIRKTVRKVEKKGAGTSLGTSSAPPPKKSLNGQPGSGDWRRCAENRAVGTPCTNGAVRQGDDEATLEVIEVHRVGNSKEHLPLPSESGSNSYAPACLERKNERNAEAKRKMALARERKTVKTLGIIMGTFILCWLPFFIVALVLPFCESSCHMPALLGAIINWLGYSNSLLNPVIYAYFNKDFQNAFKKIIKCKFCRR

[3] = molecular target: T2, Adrenergic receptor alpha-1 (Rattus norvegicus, UniProt P15823+P23944+P43140); experiment: In vitro radioligand binding assay on adrenaline Alpha-1 adrenergic receptor of rat cortex using [3H]- prazosin; format: tissue-based
T2 sequence (P15823 whole entry): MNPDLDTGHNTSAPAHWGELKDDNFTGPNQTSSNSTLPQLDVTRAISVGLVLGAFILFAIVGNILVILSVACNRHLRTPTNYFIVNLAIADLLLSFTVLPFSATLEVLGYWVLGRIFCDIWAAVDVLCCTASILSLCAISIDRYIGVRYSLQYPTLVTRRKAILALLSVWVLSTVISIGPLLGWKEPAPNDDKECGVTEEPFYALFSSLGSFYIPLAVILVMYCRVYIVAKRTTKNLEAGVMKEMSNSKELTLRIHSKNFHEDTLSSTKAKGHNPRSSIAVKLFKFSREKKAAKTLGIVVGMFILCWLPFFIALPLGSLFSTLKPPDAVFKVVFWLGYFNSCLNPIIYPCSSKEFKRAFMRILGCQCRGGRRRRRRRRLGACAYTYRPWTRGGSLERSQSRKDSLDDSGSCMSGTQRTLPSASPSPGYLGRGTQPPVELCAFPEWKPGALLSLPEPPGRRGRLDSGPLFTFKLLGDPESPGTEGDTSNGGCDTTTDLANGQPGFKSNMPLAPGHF
T2 sequence (P23944 whole entry): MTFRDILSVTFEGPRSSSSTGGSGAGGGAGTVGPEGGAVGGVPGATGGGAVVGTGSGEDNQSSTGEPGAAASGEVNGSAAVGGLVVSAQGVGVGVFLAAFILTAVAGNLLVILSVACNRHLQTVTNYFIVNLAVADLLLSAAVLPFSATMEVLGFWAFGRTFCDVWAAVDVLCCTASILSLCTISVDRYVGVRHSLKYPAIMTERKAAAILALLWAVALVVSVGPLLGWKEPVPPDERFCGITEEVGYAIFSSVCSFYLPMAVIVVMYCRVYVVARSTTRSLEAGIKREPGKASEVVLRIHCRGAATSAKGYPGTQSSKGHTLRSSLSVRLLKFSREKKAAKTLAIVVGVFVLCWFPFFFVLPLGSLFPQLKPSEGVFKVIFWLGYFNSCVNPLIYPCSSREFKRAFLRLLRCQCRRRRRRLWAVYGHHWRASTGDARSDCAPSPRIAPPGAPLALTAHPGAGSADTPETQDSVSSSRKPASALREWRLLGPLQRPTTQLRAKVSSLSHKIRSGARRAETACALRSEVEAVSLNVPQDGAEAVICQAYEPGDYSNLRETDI
T2 sequence (P43140 whole entry): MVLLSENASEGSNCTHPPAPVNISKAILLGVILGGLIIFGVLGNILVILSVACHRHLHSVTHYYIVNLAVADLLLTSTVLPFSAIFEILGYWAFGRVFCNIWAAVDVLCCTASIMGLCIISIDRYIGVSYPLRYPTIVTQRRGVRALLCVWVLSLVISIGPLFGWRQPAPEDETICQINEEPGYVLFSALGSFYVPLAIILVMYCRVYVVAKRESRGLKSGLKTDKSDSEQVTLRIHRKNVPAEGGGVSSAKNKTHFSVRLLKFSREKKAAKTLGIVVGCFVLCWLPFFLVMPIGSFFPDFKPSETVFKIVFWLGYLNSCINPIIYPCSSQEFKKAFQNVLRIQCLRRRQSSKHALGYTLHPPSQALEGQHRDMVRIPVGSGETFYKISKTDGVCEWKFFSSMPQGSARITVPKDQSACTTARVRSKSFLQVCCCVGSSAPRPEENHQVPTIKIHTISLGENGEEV

[4] = molecular target: T1, 5-hydroxytryptamine receptor 1A; experiment: In vitro radioligand binding assay on 5-hydroxytryptamine 1A receptor using [3H]8-OH-DPAT in rat hippocampus; format: tissue-based

Sequence of D(2) dopamine receptor (P61169 whole entry): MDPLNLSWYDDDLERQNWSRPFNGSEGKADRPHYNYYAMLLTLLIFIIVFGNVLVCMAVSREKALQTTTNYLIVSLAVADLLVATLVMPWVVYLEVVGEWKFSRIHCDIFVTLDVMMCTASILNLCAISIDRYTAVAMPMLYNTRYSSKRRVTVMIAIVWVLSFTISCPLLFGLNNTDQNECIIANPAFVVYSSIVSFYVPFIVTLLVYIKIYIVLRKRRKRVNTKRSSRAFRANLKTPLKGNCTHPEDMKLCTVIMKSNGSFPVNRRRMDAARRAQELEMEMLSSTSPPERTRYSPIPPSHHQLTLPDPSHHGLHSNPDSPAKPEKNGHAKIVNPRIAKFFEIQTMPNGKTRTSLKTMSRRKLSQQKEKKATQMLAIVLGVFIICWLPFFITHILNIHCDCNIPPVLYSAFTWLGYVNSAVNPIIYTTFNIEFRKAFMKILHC

| Structure (SMILES) | Ki [1] | Ki [2] | Ki [3] | IC50 [3] | IC50 [4] |
| --- | --- | --- | --- | --- | --- |
| CCCN(CCC)[C@H]1CCc2c(F)ccc(O)c2C1 | 614 nM and 400 nM | 46 nM | 6080 nM | – | – |
| COc1ccc(CCCCNCCOc2cc(O)cc3c2OCCC3)cc1 | 1.76 nM | 0.271 nM | 98.4 nM | – | – |
| COc1ccc(CCCCNCCOc2cc(OC)cc3c2OCCC3)cc1 | 1.75 nM | 3.07 nM | 27.9 nM | – | – |
| COc1ccc(CCCCNCCOc2ccc(F)c3c2OCCC3)cc1 | 3.53 nM | 0.051 nM | 8.77 nM | – | – |
| COc1ccccc1N1CCN(C[C@@H](C(=O)NC(C)(C)C)c2ccccc2)CC1 | 176 nM | 27.9 nM | 897 nM | 1490 nM | 33.9 nM |

More lines, now with the values ahead:

| Ki [1] | Ki [2] | Ki [3] | IC50 [3] | IC50 [4] | Structure (SMILES) |
| --- | --- | --- | --- | --- | --- |
| 1.79 nM | 0.779 nM | 35.1 nM | – | – | COc1ccc(CCCCNCCOc2cc(C)cc3c2OCCC3)cc1 |
| 21.3 nM | 0.35 nM | 71.5 nM | – | – | COc1ccc(CCCCNCCOc2c(F)ccc3c2OCCC3)cc1 |
| 0.489 nM | 1.29 nM | 14.3 nM | – | – | COc1ccc(CCCCNCCOc2cc(Cl)cc3c2OCCC3)cc1 |
| 0.259 nM | 0.221 nM | 2.71 nM | – | – | COc1ccc(CCCCNCCOc2cc(F)cc3c2OCCC3)cc1 |
| 0.581 nM | 0.118 nM | 5.19 nM | – | – | COc1ccc(CCCCNCCOc2cccc3c2OCCC3)cc1 |
| – | 21.5 nM and 25 nM | 1260 nM | – | – | O=C1C2C(C(=O)N1CCCCN1CCN(c3ncccn3)CC1)[C@H]1CC[C@@H]2C1 (some centres undefined) |
